Test results as given in ChEMBL document CHEMBL5212743, “Selectivity Literature for EUbOPEN Chemogenomics Library wave 3” (2023).
Each block holds one compound with its values, some of them ahead of it.

How the values were obtained:
[1] = molecular target: 72 kDa type IV collagenase (Homo sapiens, UniProt P08253); assay: Selectivity interaction (Lead profiling screen (Eurofins, enzymes, transporters, GPCRs, ion chanels)) EUB0000728a MMP2
[2] = molecular target: Epidermal growth factor receptor (Homo sapiens, UniProt P00533); assay: Selectivity interaction (KinomeScan (DiscoverX)) EUB0000728a EGFR; conditions: at 1 µM
Stromelysin-2 = Stromelysin-2 (Homo sapiens, UniProt P09238); assay: Selectivity interaction (Lead profiling screen (Eurofins, enzymes, transporters, GPCRs, ion chanels)) EUB0000728a MMP10
[3] = molecular target: Calcium/calmodulin-dependent protein kinase type 1B (Homo sapiens, UniProt Q6P2M8); assay: Selectivity interaction (KinomeScan (DiscoverX)) EUB0000728a PNCK; conditions: at 1 µM
Stromelysin-1 = Stromelysin-1 (Homo sapiens, UniProt P08254); assay: Selectivity interaction (Lead profiling screen (Eurofins, enzymes, transporters, GPCRs, ion chanels)) EUB0000728a MMP3
[4] = molecular target: Matrix metalloproteinase-14 (Homo sapiens, UniProt P50281); assay: Selectivity interaction (Lead profiling screen (Eurofins, enzymes, transporters, GPCRs, ion chanels)) EUB0000728a MMP14
D(2) dopamine receptor = D(2) dopamine receptor (Homo sapiens, UniProt P14416); assay: Selectivity interaction (GPCR panel (PDSP screen)) EUB0000728a DRD2; conditions: at 10 µM
Matrilysin = molecular target: T1, Matrilysin (Homo sapiens, UniProt P09237); assay: Selectivity interaction (Lead profiling screen (Eurofins, enzymes, transporters, GPCRs, ion chanels)) EUB0000728a MMP7
T1 sequence (P09237 whole entry): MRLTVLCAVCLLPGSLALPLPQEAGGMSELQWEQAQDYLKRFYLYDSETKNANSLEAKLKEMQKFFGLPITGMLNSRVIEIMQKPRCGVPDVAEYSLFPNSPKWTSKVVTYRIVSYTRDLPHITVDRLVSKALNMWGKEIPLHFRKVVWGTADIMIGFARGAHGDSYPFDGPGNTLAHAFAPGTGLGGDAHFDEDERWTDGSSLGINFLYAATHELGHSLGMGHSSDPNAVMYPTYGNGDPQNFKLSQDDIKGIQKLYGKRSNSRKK

[5] = molecular target: Matrix metalloproteinase-9 (Homo sapiens, UniProt P14780); assay: Selectivity interaction (Lead profiling screen (Eurofins, enzymes, transporters, GPCRs, ion chanels)) EUB0000728a MMP9
Collagenase 3 = Collagenase 3 (Homo sapiens, UniProt P45452); assay: Selectivity interaction (Lead profiling screen (Eurofins, enzymes, transporters, GPCRs, ion chanels)) EUB0000728a MMP13
[6] = molecular target: Non-receptor tyrosine-protein kinase TYK2 (Homo sapiens, UniProt P29597); assay: Selectivity interaction (KinomeScan (DiscoverX)) EUB0000728a TYK2; conditions: at 1 µM
[7] = molecular target: Matrix metalloproteinase-16 (Homo sapiens, UniProt P51512); assay: Selectivity interaction (Lead profiling screen (Eurofins, enzymes, transporters, GPCRs, ion chanels)) EUB0000728a MMP16
Neutrophil collagenase = Neutrophil collagenase (Homo sapiens, UniProt P22894); assay: Selectivity interaction (Lead profiling screen (Eurofins, enzymes, transporters, GPCRs, ion chanels)) EUB0000728a MMP8
[8] = molecular target: Serine/threonine-protein kinase WNK4 (Homo sapiens) (UniProt Q96J92); assay: Selectivity interaction (KinomeScan (DiscoverX)) EUB0000307b WNK4; conditions: at 1 µM
[9] = molecular target: Prostaglandin E2 receptor EP4 subtype (Homo sapiens, UniProt P35408); assay: Selectivity interaction (Eurofins-Panlabs radioligand binding assay ) EUB0000307b PTGER4
[10] = molecular target: Epithelial discoidin domain-containing receptor 1 (Homo sapiens, UniProt Q08345); assay: Selectivity interaction (KinomeScan (DiscoverX)) EUB0000307b DDR1; conditions: at 1 µM
Adenosine receptor A3 = molecular target: T2, Adenosine receptor A3 (Homo sapiens, UniProt P0DMS8); assay: Selectivity interaction (Eurofins-Panlabs radioligand binding assay ) EUB0000307b ADORA3
T2 sequence (P0DMS8 whole entry): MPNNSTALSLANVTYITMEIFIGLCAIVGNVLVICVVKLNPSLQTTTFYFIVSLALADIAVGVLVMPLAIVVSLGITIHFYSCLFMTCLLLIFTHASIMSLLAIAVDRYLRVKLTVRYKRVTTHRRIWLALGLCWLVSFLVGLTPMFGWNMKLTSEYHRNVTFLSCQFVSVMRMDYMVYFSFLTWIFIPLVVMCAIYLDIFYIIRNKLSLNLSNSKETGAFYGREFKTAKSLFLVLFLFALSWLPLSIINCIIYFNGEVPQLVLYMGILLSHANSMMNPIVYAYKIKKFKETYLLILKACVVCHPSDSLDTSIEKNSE

[11] = molecular target: Tyrosine-protein kinase receptor TYRO3 (Homo sapiens) (UniProt Q06418); assay: Selectivity interaction (KinomeScan (DiscoverX)) EUB0000542a TYRO3; conditions: at 1 µM
[12] = molecular target: Polyunsaturated fatty acid 5-lipoxygenase (Homo sapiens) (UniProt P09917); assay: (§1) Selectivity interaction (Eurofins-Panlabs screen) EUB0000542a ALOX5; conditions: at 10 µM
[13] = molecular target: Thromboxane-A synthase (Homo sapiens) (UniProt P24557); assay: (§2) Selectivity interaction (Eurofins-Panlabs screen) EUB0000542a CYP5A1; conditions: at 10 µM
[14] = molecular target: Polyunsaturated fatty acid 5-lipoxygenase (Homo sapiens, UniProt P09917); assay: as §1
[15] = molecular target: Tyrosine-protein kinase JAK1 (Homo sapiens, UniProt P23458); assay: Selectivity interaction (KinomeScan (DiscoverX)) EUB0000542a JAK1@kinase 2; conditions: at 1 µM
Thromboxane-A synthase = Thromboxane-A synthase (Homo sapiens, UniProt P24557); assay: as §2
[16] = molecular target: Serine/threonine-protein kinase Chk2 (Homo sapiens, UniProt O96017); assay: Selectivity interaction (KinomeScan (DiscoverX)) EUB0000542a CHEK2; conditions: at 1 µM

Matrix metalloproteinase-16, sequence (P51512 whole entry): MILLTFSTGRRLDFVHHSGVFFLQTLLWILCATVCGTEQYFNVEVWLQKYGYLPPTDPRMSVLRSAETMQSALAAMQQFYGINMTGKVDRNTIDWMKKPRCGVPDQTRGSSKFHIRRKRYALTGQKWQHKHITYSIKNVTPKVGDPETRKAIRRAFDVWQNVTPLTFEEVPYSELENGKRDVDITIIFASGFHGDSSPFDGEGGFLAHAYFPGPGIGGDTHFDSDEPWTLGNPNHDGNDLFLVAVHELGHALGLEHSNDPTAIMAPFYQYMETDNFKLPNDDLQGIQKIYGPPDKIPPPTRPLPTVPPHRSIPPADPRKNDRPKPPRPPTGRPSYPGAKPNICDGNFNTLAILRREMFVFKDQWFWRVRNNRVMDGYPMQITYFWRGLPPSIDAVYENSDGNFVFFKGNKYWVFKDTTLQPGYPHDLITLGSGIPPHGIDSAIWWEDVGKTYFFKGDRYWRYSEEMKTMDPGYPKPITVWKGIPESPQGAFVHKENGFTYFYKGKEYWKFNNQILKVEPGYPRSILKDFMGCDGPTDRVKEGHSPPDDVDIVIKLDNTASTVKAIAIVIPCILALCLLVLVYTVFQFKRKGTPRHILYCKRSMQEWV
Non-receptor tyrosine-protein kinase TYK2, sequence (P29597 whole entry): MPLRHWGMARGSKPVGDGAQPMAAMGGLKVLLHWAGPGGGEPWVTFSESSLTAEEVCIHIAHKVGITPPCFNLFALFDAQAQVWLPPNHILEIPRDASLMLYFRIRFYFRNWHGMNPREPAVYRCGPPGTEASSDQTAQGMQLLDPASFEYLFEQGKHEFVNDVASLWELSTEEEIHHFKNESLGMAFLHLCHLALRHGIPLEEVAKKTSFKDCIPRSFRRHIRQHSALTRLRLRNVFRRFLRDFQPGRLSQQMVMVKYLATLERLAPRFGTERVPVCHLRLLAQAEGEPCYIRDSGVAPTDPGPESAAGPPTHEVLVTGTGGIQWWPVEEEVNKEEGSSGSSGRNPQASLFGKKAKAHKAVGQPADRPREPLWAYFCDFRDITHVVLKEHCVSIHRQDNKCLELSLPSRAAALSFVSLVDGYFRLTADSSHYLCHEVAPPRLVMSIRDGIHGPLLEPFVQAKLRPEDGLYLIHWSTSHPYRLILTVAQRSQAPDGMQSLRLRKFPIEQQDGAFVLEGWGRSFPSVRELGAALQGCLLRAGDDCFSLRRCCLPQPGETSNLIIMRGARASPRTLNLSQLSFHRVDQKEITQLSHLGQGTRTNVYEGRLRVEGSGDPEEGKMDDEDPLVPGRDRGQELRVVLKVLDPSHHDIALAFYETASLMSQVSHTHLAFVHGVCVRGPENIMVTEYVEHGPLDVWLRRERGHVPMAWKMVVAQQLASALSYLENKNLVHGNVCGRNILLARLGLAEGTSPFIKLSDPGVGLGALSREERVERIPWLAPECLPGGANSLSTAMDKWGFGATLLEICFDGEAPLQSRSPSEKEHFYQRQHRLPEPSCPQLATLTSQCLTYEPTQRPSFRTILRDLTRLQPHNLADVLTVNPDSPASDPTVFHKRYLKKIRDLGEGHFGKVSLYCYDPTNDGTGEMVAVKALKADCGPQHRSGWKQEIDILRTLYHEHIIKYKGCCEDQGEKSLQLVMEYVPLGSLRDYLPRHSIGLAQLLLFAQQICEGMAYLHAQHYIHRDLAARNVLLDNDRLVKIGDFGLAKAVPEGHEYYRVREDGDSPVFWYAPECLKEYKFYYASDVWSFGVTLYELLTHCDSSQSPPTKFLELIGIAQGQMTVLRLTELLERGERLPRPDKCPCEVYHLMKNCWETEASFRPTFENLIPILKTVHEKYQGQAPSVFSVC
Serine/threonine-protein kinase WNK4 (Homo sapiens), sequence (Q96J92 whole entry): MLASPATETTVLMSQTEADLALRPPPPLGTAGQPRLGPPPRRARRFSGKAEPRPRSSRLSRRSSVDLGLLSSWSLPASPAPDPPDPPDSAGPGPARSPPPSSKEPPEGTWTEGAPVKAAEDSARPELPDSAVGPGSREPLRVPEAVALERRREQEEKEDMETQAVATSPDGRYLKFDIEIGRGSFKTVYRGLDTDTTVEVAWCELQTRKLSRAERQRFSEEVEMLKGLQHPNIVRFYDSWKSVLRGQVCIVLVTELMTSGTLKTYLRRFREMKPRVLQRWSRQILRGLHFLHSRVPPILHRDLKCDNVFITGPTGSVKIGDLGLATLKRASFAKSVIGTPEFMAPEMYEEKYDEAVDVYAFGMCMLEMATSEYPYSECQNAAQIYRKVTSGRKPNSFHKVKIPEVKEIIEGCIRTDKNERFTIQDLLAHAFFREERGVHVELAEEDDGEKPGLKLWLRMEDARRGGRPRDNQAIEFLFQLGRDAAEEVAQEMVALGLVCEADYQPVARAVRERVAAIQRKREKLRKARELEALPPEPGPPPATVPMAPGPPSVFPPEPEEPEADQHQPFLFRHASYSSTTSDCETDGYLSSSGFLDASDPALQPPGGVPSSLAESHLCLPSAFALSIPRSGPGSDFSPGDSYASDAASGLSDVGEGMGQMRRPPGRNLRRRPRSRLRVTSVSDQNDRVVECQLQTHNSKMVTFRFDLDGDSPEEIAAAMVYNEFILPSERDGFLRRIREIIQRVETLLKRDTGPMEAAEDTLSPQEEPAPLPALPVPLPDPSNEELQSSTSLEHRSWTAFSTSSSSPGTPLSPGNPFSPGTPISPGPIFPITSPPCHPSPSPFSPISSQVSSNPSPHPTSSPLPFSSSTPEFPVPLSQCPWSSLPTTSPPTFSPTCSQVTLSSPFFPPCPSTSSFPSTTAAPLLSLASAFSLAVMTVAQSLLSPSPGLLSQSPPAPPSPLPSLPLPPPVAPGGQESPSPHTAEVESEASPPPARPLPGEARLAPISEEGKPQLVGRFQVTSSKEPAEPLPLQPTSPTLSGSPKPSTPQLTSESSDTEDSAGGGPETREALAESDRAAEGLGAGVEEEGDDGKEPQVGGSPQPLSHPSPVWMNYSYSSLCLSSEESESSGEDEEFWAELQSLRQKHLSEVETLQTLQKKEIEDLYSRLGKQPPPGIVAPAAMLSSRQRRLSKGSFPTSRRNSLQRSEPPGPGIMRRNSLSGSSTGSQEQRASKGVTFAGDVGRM
Thromboxane-A synthase, sequence (P24557 whole entry): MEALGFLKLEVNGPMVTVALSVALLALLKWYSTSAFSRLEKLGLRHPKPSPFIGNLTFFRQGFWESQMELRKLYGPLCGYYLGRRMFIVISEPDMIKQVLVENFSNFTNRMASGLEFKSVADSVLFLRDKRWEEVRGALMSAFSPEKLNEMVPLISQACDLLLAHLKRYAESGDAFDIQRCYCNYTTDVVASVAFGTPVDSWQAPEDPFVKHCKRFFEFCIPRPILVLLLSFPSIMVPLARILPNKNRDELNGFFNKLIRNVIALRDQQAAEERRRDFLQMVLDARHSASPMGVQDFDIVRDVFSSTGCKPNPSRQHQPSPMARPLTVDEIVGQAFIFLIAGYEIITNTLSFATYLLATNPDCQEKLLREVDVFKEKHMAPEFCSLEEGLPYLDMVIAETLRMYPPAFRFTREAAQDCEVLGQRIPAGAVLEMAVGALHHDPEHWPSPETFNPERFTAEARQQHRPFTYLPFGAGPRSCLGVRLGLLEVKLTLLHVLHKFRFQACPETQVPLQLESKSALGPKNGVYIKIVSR
Thromboxane-A synthase (Homo sapiens), sequence (P24557 whole entry): as above
Tyrosine-protein kinase JAK1, sequence (P23458 whole entry): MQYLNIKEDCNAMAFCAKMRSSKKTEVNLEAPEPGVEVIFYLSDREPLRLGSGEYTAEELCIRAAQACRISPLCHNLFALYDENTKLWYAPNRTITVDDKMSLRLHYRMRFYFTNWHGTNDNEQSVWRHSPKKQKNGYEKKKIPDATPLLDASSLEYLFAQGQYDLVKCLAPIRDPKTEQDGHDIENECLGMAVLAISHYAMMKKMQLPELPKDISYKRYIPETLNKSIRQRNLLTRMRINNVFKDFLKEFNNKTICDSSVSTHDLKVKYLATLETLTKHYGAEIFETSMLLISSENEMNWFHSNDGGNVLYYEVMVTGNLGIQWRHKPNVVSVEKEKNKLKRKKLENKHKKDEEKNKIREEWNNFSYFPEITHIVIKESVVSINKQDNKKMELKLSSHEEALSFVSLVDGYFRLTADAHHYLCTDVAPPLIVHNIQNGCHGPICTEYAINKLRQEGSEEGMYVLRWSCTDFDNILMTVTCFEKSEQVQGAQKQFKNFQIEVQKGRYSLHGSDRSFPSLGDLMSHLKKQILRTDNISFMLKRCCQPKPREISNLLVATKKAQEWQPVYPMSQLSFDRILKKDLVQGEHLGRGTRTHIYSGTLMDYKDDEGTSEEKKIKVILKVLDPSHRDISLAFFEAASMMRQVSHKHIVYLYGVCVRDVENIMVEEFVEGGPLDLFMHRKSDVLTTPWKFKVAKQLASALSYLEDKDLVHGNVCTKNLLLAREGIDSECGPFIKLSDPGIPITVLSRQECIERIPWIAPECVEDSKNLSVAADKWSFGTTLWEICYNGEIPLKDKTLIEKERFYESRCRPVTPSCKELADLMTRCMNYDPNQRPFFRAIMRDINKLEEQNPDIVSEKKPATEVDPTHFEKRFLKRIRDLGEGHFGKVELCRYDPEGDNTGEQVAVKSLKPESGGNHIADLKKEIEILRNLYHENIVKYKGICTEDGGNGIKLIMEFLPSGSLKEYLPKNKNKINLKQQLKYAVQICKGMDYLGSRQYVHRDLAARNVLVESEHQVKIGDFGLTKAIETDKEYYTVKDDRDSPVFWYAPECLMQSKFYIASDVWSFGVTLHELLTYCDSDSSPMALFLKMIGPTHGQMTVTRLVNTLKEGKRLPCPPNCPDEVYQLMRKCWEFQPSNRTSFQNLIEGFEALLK

IC50 [1]: 44 nM
% of control [2]: 40%
IC50 (Stromelysin-2): 13 nM
% of control [3]: 46%
IC50 (Stromelysin-1): 360 nM
IC50 [4]: 250 nM
% of inhibition (D(2) dopamine receptor): 30%
IC50 (Matrilysin): 600 nM
IC50 [5]: 460 nM
IC50 (Collagenase 3): 67 nM
% of control [6]: 41%
IC50 [7]: 940 nM
IC50 (Neutrophil collagenase): 15 nM
Structure (SMILES): O=C(O)[C@H]1[C@H](Cn2nnc3ccccc3c2=O)CC[C@@H]1C(=O)c1ccc(OCCC2CCOCC2)cc1 [BAY-7598]

% of control [8]: 0%
IC50 [9]: 1120 nM
% of control [10]: 1.5%
IC50 (Adenosine receptor A3): 1140 nM
Structure (SMILES): Cc1c(NC(=O)c2cc(C(N)=O)nc3cc(F)ccc23)c(C(F)(F)F)nn1Cc1ccc(C#N)cc1 [BAY-876]

% of control [11]: 0%
% of inhibition [12]: 66%
% of inhibition [13]: 96%
IC50 [14]: 5920 nM
% of control [15]: 37%
IC50 (Thromboxane-A synthase): 132 nM
% of control [16]: 0%
Structure (SMILES): CCOCCn1cc(C(=O)Nc2ccc(-n3nc(-c4cccnc4)cc3C(F)(F)F)cn2)ccc1=O [BI 1935]
